# ChEMBL document CHEMBL4311992, “Discovery of 3-(((9H-purin-6-yl)amino)methyl)-4,6-dimethylpyridin-2(1H)-one derivatives as novel tubulin polymerization inhibitors for treatment of cancer” (Eur J Med Chem, 2019)
# How the values were obtained:
# [1] = target: Mitogen-activated protein kinase 11 (Homo sapiens) (UniProt Q15759); assay: Inhibition of recombinant full-length human SAPK2b assessed as residual activity at 10 uM using myelin basic protein as substrate measured after 40 mins in presence of [gamma33P]ATP by scintillation counting method
# [2] = target: Phosphatidylinositol 4-phosphate 5-kinase type-1 alpha (Homo sapiens) (UniProt Q99755); assay: Inhibition of recombinant full-length human PIP5K1alpha assessed as residual activity at 10 uM using phosphatidylinositol 4-phosphate as substrate measured after 40 mins by HTRF assay
# [3] = target: Ephrin type-B receptor 4 (Homo sapiens) (UniProt P54760); assay: Inhibition of recombinant human EphB4 (561 to end residues) assessed as residual activity at 10 uM using poly (Glu, Tyr) 4:1 as substrate measured after 40 mins in presence of [gamma33P]ATP by scintillation counting method
# [4] = species on record: Homo sapiens; assay: Inhibition of recombinant human Mer H628Q/R794A mutant (557 to 882 residues) assessed as residual activity at 10 uM using GGMEDIYFEFMGGKKK as substrate measured after 40 mins in presence of [gamma33P]ATP by scintillation counting method
# [5] = target: Serine/threonine-protein kinase MARK2 (Homo sapiens) (UniProt Q7KZI7); assay: Inhibition of recombinant full-length human PAR1Balpha assessed as residual activity at 10 uM using KKKVSRSGLYRSPSMPENLNRPR as substrate measured after 40 mins in presence of [gamma33P]ATP by scintillation counting method
# [6] = tested on: Tyrosine-protein kinase ABL1 (Homo sapiens), P00519 [H396P]; assay: Inhibition of recombinant human ABL H396P mutant (27 to end residues) assessed as residual activity at 10 uM using EAIYAAPFAKKK as substrate measured after 40 mins in presence of [gamma33P]ATP by scintillation counting method
# [7] = target: Testis-specific serine/threonine-protein kinase 2 (Homo sapiens) (UniProt Q96PF2); assay: Inhibition of recombinant full-length human TSSK2 assessed as residual activity at 10 uM using KKKVSRSGLYRSPSMPENLNRPR as substrate measured after 40 mins in presence of [gamma33P]ATP by scintillation counting method
# [8] = target: cGMP-dependent protein kinase 1 (Homo sapiens) (UniProt Q13976); assay: Inhibition of recombinant full-length human PKG1alpha assessed as residual activity at 10 uM using RRRLSFAEPG as substrate measured after 40 mins in presence of [gamma33P]ATP by scintillation counting method
# [9] = target: Mitogen-activated protein kinase kinase kinase 2 (Homo sapiens) (UniProt Q9Y2U5); assay: Inhibition of recombinant full-length human MEKK2 assessed as residual activity at 10 uM using myelin basic protein as substrate measured after 40 mins in presence of [gamma33P]ATP by scintillation counting method
# [10] = species on record: Homo sapiens; assay: Inhibition of human activated Tec F514V mutant (174 to end residues) using EFPIYDFLPAKKK as substrate measured after 40 mins in presence of [gamma33P]ATP by scintillation counting method; set-up: scale not given: the % may be the effect or the level left
# [11] = tested on: SW-620; assay: Induction of apoptosis in human SW620 cells assessed as late apoptotic cells at 25 nM measured after 48 hrs by Annexin V-FITC/propidium iodide staining-based flow cytometry (reference value: 1.8%); assay type: functional
# [12] = target: Serine/threonine-protein kinase 32C (Homo sapiens) (UniProt Q86UX6); assay: Inhibition of recombinant full-length human STK32C assessed as residual activity at 10 uM using casein as substrate measured after 120 mins in presence of [gamma33P]ATP by scintillation counting method
# [13] = target: CDK7/Cyclin H/MNAT1 (Homo sapiens) (UniProt P51946+P50613+P51948); assay: Inhibition of recombinant full length human CDK7/cyclin H/MAT1 assessed as residual activity at 10 uM using peptide substrate measured after 40 mins in presence of [gamma33P]ATP by scintillation counting method; assay type: protein-complex assay
# [14] = target: Dual specificity protein kinase CLK1 (Homo sapiens) (UniProt P49759); assay: Inhibition of recombinant human CLK1 (130 to end residues) assessed as residual activity at 10 uM using ERMRPRKRQGSVRRRV as substrate measured after 40 mins in presence of [gamma33P]ATP by scintillation counting method
# [15] = target: Dual specificity mitogen-activated protein kinase kinase 4 (Homo sapiens) (UniProt P45985); assay: Inhibition of recombinant human MKK4 (34 to end residues) assessed as residual activity at 10 uM using unactive JNK1a1 as substrate measured after 40 mins in presence of [gamma33P]ATP by scintillation counting method
# [16] = target: Testis-specific serine/threonine-protein kinase 4 (Homo sapiens) (UniProt Q6SA08); assay: Inhibition of recombinant full-length human TSSK4 assessed as residual activity at 10 uM using KKLNRTLSFAEPG as substrate measured after 40 mins in presence of [gamma33P]ATP by scintillation counting method
# [17] = tested on: Tyrosine-protein kinase BTK (Homo sapiens), Q06187 [R28H]; assay: Inhibition of full-length recombinant human BTK R28H mutant assessed as residual activity at 10 uM using LSNLYHQGKFLQTFCGSPLYRRR as substrate measured after 40 mins in presence of [gamma33P]ATP by scintillation counting method
# [18] = target: Testis-specific serine/threonine-protein kinase 1 (Homo sapiens) (UniProt Q9BXA7); assay: Inhibition of recombinant full-length human TSSK1 assessed as residual activity at 10 uM using KKKVSRSGLYRSPSMPENLNRPR as substrate measured after 120 mins in presence of [gamma33P]ATP by scintillation counting method
# [19] = Toxicity in nude BALB/c mouse assessed as change in WBC level at 40 to 80 mg/kg, po once daily for 4 weeks measured post-last dose; assay type: organism-based; settings: in vivo, 672 h
# [20] = tested on: HCT-116; assay: Induction of apoptosis in human HCT116 cells assessed as late apoptotic cells at 100 nM measured after 48 hrs by Annexin V-FITC/propidium iodide staining-based flow cytometry (reference value: 3.87%); assay type: functional
# [21] = target: Rhodopsin kinase GRK7 (Homo sapiens) (UniProt Q8WTQ7); assay: Inhibition of recombinant full-length human GRK7 assessed as residual activity at 10 uM using casein as substrate measured after 40 mins in presence of [gamma33P]ATP by scintillation counting method
# [22] = target: Ephrin type-B receptor 3 (Homo sapiens) (UniProt P54753); assay: Inhibition of recombinant human EphB3 (599 to 920 residues) assessed as residual activity at 10 uM using poly (Glu, Tyr) 4:1 as substrate measured after 40 mins in presence of [gamma33P]ATP by scintillation counting method
# [23] = target: Serine/threonine-protein kinase VRK2 (Homo sapiens) (UniProt Q86Y07); assay: Inhibition of human VRK2 (1 to 336 residues) using casein as substrate measured after 40 mins in presence of [gamma33P]ATP by scintillation counting method; set-up: scale not given: the % may be the effect or the level left
# [24] = target: Serine/threonine-protein kinase PRP4 homolog (Homo sapiens) (UniProt Q13523); assay: Inhibition of human PRP4 (663 to end residues) using casein as substrate measured after 40 mins in presence of [gamma33P]ATP by scintillation counting method; set-up: scale not given: the % may be the effect or the level left
# Testis-specific serine/threonine-protein kinase 2 (Homo sapiens), sequence (Q96PF2 whole entry): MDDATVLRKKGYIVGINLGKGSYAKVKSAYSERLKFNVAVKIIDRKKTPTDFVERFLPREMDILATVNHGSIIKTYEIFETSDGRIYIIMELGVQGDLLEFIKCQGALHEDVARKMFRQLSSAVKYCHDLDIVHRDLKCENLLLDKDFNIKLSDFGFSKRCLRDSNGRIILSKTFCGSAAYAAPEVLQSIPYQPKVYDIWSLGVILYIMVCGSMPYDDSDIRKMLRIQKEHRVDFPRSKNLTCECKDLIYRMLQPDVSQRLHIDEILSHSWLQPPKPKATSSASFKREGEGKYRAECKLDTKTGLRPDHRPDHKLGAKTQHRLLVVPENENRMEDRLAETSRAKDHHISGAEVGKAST
# Serine/threonine-protein kinase MARK2 (Homo sapiens), sequence (Q7KZI7 whole entry): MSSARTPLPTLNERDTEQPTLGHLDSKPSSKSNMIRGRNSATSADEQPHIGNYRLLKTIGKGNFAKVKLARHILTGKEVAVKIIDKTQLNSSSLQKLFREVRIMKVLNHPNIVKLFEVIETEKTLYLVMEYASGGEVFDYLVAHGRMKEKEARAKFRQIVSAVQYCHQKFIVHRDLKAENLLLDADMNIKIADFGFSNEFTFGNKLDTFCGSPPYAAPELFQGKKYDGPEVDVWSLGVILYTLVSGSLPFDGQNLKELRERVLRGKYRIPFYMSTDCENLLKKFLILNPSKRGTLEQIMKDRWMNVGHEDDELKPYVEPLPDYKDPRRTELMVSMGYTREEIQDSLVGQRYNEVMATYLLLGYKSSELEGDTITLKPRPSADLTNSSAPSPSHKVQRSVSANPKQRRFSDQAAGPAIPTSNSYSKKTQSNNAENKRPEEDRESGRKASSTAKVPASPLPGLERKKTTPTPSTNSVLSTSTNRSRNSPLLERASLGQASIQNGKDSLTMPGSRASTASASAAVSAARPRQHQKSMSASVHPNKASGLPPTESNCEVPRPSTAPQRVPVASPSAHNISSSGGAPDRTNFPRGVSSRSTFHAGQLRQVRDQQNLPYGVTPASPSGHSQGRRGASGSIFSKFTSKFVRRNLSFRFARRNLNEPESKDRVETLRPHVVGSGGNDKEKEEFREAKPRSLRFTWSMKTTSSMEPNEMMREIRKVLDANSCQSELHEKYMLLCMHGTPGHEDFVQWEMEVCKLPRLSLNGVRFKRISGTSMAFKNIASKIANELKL
# Tyrosine-protein kinase BTK (Homo sapiens), Q06187 [R28H], sequence (Q06187 whole entry R28H): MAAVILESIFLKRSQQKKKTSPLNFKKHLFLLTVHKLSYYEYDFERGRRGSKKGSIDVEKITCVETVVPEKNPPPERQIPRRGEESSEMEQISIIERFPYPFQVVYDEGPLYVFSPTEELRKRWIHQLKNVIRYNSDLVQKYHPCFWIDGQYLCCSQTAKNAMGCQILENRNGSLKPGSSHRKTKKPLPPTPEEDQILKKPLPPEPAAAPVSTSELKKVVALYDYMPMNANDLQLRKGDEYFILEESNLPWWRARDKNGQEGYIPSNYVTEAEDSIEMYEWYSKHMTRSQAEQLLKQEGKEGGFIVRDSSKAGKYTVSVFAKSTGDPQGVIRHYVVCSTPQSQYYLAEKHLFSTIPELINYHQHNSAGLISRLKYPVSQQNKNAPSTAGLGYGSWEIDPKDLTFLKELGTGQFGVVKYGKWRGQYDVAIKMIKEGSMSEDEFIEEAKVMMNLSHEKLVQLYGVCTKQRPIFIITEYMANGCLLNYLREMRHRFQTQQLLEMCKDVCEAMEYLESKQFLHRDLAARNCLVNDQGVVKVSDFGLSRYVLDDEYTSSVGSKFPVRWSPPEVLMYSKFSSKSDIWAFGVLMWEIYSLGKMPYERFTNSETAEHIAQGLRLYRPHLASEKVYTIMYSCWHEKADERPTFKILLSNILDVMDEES
# Rhodopsin kinase GRK7 (Homo sapiens), sequence (Q8WTQ7 whole entry, the tested form may be a part): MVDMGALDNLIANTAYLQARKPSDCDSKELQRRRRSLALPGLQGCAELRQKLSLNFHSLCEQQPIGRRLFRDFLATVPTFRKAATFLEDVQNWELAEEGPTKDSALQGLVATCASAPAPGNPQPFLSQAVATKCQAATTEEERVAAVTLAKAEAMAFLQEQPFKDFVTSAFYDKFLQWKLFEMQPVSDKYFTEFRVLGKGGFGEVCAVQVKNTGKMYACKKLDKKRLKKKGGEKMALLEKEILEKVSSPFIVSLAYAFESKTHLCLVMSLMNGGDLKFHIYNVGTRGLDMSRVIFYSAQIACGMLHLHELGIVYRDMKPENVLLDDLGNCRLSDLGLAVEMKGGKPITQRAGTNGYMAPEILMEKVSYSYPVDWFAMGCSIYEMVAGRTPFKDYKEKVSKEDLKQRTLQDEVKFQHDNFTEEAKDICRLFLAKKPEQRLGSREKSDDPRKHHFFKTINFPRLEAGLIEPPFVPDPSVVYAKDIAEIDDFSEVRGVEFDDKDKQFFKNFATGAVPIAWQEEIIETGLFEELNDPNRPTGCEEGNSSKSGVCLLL
# Dual specificity mitogen-activated protein kinase kinase 4 (Homo sapiens), sequence (P45985 whole entry): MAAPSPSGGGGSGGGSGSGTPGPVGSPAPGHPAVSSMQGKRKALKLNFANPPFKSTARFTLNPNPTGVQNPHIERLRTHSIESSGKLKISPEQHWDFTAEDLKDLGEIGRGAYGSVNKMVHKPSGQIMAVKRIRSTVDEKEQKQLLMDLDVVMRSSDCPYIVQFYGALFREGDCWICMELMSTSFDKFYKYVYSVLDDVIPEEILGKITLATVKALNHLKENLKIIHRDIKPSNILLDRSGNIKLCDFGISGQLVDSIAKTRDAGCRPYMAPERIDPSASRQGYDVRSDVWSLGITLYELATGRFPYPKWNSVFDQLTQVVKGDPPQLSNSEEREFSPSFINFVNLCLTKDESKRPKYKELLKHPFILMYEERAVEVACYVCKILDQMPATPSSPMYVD
# Serine/threonine-protein kinase 32C (Homo sapiens), sequence (Q86UX6 whole entry): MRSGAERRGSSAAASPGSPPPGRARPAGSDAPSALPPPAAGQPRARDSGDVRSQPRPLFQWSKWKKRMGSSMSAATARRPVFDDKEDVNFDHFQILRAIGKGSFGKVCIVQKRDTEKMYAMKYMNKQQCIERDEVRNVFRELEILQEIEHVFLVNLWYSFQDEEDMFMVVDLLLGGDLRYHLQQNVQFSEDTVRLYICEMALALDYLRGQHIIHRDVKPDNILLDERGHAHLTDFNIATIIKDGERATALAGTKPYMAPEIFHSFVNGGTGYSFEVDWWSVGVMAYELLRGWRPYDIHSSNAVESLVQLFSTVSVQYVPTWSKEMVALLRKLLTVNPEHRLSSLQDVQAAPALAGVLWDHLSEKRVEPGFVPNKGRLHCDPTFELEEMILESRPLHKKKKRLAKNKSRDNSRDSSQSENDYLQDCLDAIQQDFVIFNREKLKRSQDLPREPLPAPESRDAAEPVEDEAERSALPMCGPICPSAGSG
# Dual specificity protein kinase CLK1 (Homo sapiens), sequence (P49759 whole entry, looked up): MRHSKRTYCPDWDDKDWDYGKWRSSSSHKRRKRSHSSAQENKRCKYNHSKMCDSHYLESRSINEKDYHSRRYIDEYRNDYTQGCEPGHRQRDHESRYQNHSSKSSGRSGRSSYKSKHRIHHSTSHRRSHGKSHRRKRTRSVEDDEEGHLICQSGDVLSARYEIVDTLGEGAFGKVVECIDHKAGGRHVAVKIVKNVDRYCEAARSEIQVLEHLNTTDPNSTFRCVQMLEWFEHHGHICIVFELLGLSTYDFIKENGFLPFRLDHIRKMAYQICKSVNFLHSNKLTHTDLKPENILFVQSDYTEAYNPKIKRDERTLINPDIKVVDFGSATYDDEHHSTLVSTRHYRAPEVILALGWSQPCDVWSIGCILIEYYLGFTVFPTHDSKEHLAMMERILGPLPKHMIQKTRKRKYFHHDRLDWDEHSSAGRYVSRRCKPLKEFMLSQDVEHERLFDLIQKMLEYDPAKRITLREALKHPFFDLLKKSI
# Testis-specific serine/threonine-protein kinase 1 (Homo sapiens), sequence (Q9BXA7 whole entry): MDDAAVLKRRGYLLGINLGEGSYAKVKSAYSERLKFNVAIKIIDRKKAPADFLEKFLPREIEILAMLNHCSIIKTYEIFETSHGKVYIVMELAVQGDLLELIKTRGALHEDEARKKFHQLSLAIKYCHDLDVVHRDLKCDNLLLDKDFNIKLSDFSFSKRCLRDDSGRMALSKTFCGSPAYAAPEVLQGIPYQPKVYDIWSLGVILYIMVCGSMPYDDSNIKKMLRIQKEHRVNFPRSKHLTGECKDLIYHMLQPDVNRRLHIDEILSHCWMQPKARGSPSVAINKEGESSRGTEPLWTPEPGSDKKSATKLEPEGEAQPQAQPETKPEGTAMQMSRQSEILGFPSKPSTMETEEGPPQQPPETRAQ
# Serine/threonine-protein kinase VRK2 (Homo sapiens), sequence (Q86Y07 whole entry, the tested form may be a part): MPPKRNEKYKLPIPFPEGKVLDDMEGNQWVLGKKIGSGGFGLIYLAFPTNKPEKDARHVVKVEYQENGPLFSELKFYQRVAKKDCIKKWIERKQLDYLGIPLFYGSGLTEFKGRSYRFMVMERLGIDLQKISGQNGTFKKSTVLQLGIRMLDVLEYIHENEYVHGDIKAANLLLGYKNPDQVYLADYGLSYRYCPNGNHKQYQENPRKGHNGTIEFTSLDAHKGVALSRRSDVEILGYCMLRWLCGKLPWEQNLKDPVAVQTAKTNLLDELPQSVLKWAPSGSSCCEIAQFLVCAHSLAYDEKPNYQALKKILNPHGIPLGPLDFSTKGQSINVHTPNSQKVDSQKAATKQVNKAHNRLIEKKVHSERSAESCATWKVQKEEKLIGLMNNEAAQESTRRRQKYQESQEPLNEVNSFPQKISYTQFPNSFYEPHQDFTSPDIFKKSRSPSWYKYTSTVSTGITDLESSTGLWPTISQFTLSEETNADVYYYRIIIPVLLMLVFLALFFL
# Testis-specific serine/threonine-protein kinase 4 (Homo sapiens), sequence (Q6SA08 whole entry): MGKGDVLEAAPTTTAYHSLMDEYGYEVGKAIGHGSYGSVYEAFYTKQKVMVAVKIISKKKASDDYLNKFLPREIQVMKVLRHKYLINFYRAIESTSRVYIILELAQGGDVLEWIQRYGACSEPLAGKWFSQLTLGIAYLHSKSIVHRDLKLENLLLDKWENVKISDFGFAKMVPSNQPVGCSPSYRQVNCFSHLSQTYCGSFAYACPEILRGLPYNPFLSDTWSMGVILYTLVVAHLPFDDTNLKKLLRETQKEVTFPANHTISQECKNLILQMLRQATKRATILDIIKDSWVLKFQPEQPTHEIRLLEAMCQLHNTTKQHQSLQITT
smiles,measurement,setting,value
Cc1cc(C)c(CNc2nc(Cl)nc3c2ncn3C2CCCC2)c(=O)[nH]1,Activity,[1],100%
same,Activity,[2],100%
same,Activity,[3],102%
same,Activity,[4],109%
same,Activity,[5],95.5%
same,Activity,[6],104%
same,Activity,[7],117%
same,Activity,[8],99.5%
same,Activity,[9],104%
same,Activity,[10],96.5%
same,Activity,[11],4.23%
same,Activity,[12],97%
same,Activity,[13],101%
same,Activity,[14],108%
same,Activity,[15],133%
same,Activity,[16],138%
same,Activity,[17],98%
same,Activity,[18],110%
same,Activity,[19],Non-Toxic
same,Activity,[20],42.6%
same,Activity,[21],102%
same,Activity,[22],110%
same,Activity,[23],102%
same,Activity,[24],93%
